Values of other authors, collected in patent publication US20130190499A1, “Azaisoquinolinone derivatives as NK3 antagonists” (H. Lundbeck A/S, priority 2010, published 2013).

Target: T1, NK3 (Homo sapiens, UniProt P29371)
T1 sequence (P29371 1-465): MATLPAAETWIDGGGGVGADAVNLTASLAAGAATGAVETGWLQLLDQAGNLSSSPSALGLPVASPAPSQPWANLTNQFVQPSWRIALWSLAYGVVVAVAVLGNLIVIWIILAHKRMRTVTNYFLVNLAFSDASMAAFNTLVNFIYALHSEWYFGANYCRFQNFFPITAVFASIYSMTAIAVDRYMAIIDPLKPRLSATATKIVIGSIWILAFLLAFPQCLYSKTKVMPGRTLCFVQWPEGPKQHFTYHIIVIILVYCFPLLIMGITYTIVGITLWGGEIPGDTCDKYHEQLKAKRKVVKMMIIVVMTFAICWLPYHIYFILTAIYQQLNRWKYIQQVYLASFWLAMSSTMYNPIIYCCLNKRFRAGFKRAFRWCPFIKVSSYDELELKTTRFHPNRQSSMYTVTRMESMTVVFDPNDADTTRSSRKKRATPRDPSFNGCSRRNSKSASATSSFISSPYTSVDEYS

Row | Effect in clinical trials, in particular on positive symptoms of psychosis (versus placebo, delusions, hallucinations and paranoia) | Compound | Effect in clinical trials on cognitive behaviour of schizophrenics (schizophrenics)
1 | – | CC[C@H](NC(=O)c1c(O)c(-c2ccccc2)nc2ccccc12)c1ccccc1 [talnetant] | ameliorate the cognitive behaviour of schizophrenics
2 | superior to placebo | CC(=O)N(C)C1(c2ccccc2)CCN(CCC[C@]2(c3ccc(Cl)c(Cl)c3)CCCN(C(=O)c3ccccc3)C2)CC1 [Osanetant] | –
